Drawing on patent publication US7507727B2, “Substituted quinobenzoxazine analogs and methods of using thereof” (Cylene Pharmaceuticals, Inc., priority 2003, dated 2009), this text covers IC50 for 59 compounds.

Where two headings read alike, the source gives them in different places. Bounds are passed on as bounds.

For this experiment, the target named is c-Myc template DNA (c-myc quadruplex). The experiment is described as follows: Quadruplex binding / stop assay (Taq polymerase arrest, capillary electrophoresis).
Where [1] appears, read: read-out: Stop Data c-Myc μM, concentration at which 50% of the DNA was arrested (arrested:full-length 1:1).
Setting [2] is: read-out: S DATA, Table 1D, stop assay data.

Excerpt: A high throughput polymerase arrest assay has been developed. The assay comprises contacting a template nucleic acid, often DNA, with a primer, which also is often DNA; contacting the primer/template complex with a compound described herein (also referred to as a “test compound”); contacting the primer/template complex with a polymerase; and separating reaction products. The assay often includes the step of denaturing the primer/template complex mixture and then renaturing the complex, which often is carried out before a test molecule is added to the system. Multiple assays often are carried out using varying concentrations of a test compound, such that an IC50 value can be obtained, for example. The reaction products often include extended primers of different lengths.
Thus, the reaction mixture often includes at least two reaction products when a test compound interacts with a quadruplex structure in the template, one having a completely extended primer and one having an incompletely extended primer, and these two reaction products are separated. The products may be separated using any convenient separation method, such as mass spectrometry and in one embodiment, capillary electrophoresis.
In an embodiment, a primer oligonucleotide covalently linked to a fluorescent label is contacted with template DNA. The resulting complex is contacted with a test molecule and then contacted with a polymerase capable of extending the primer. The reaction products then are separated and detected by capillary electrophoresis. A longer primer sequence was used for practicing this embodiment as compared to embodiments where the primer includes no covalently-linked fluorophore or where capillary electrophoresis is not utilized for separation. Deoxynucleotides are added at any stage of the assay before the separation, often when the primer is contacted with the template DNA. The template DNA/primer complex often is denatured (e.g., by increasing the temperature of the system) and then renatured (e.g., by cooling the system) before a test compound is added).
The mixture was denatured at 95° C. for 5 minutes and, after cooling down to room temperature, was incubated at 37° C. for 15 minutes.
After cooling down to room temperature, 1 mM KCl and the test compound (various concentrations) were added and the mixture incubated for 15 minutes at room temperature. The primer extension was performed by adding 10 mM KCl and Taq DNA Polymerase (2.5 U/reaction, Promega) and incubating at 70° C. for 30 minutes. The reaction was stopped by adding 1 μl of the reaction mixture to 10 μl Hi-Di Formamide mixed and 0.25 μl LIZ120 size standard. Hi-Di Formamide and LIZ120 size standard were purchased from Applied Biosystems.
The partially extended quadruplex arrest product was between 61 or 62 bases long and the full-length extended product was 99 bases long. The products were separated and analyzed using capillary electrophoresis. Capillary electrophoresis was performed using an ABI PRISM 3100-Avant Genetic Analyzer.
Stop Assays. […] A fluorescently labeled primer DNA is then annealed to the 3′ end of the template DNA. A DNA polymerase such as Taq polymerase is then introduced to synthesize a complementary strand of DNA by extending from the fluorescently labeled primer. When the progress of the Taq polymerase is unhindered, it synthesizes a full-length copy of the template.
These products are visualized by capillary electrophoresis.

Regarding `CN1CCC(NC(=O)c2cn3c4c(c(N5CCC(N)C5)c(F)cc4c2=O)Oc2cc4ccccc4cc2-3)CC1` (centres unmarked) [compound 467], the IC50 under setting [1] was found to be 0.75 µM.
The same measure, in the same setting: as for `CN1CCCC1CCNC(=O)c1cn2c3c(c(NCC4CCN(C(=O)OC(C)(C)C)C4)c(F)cc3c1=O)Oc1cc3ccccc3cc1-2` (centres unmarked) [compound 441], the figure is 0.75 µM.
As for `CN1CCCC1CCNC(=O)c1cn2c3c(c(SCCc4cnccn4)c(F)cc3c1=O)Oc1c-2ccc2ccccc12` (centres unmarked) [compound 1780], under setting [2], the IC50 was 5.2 µM.
Consider `CN1CCCC1CCNc1c(F)cc2c(=O)c(C(=O)NCCN3CCOCC3)cn3c2c1Oc1cc2c(cc1-3)oc1ccccc12` (centres unmarked) [compound 158], for which the IC50 under setting [1] is 1.75 µM.
The same measure, in the same setting: as for `NC1CCN(c2c(F)cc3c(=O)c(C(=O)NC4CCN(Cc5ccccc5)CC4)cn4c3c2Oc2cc3ccccc3cc2-4)C1` (centres unmarked) [compound 245], the figure is 1.75 µM.
On to `N#Cc1ccc2c(c1)-n1cc(C(=O)NCCN3CCOCC3)c(=O)c3cc(F)c(N4CCC(N)C4)c(c31)O2` (centres unmarked) [compound 1793], for which the IC50 under setting [2] was 5.3 µM.
The same measure, in the same setting: as for `CC(C)N1CCN(c2c(F)cc3c(=O)c(C(=O)NCCC4CCCN4C)cn4c3c2Oc2ccccc2-4)CC1` (centres unmarked) [compound 1565], the figure is above 15 µM; as for `COc1ccc(CCNc2c(F)cc3c(=O)c(C(=O)NCCN4CCCC4)cn4c3c2Oc2cc3ccccc3cc2-4)cc1OC` [compound 1756], 1.81 µM.
As for `CN(C)CCCCNC(=O)c1cn2c3c(c(N4CC[C@@H](N)C4)c(F)cc3c1=O)Oc1cc3ccccc3cc1-2` [compound 567], under setting [1], the IC50 worked out at 0.25 µM.
Turning to `CC(C)N1CCN(c2c(F)cc3c(=O)c(C(=O)NCCCN4CCN(C)CC4)cn4c3c2Oc2ccccc2-4)CC1` [compound 1563], the IC50 under setting [2] was above 15 µM.
On the same count and under the same terms, as for `CC(=O)N1CCN(c2c(F)cc3c(=O)c(C(=O)NCCN4CCCC4)cn4c3c2Oc2cc(Cl)ccc2-4)CC1` [compound 1812], the figure is 3.2 µM.
`Nc1c(F)c(N2CCC(N)C2)c2c3c1c(=O)c(C(=O)N1CCOCC1)cn3-c1cc3ccccc3cc1O2` (centres unmarked) [compound 239]: under setting [1], the IC50 came to 1.75 µM.
Take `O=C(NCCN1CCCC1)c1cn2c3c(c(NCCCN4CCOCC4)ccc3c1=O)Oc1cc3ccccc3cc1-2` [compound 1528]: under setting [2], the IC50 amounted to 1.75 µM.
Same read-out and setting: as for `N=C(N)NCCNC(=O)c1cn2c3c(c(NCCN4CCCC4)c(F)cc3c1=O)Oc1cc3ccccc3cc1-2` [compound 1653], the figure is 0.34 µM.
Take `N=C(N)NCCCCNC(=O)c1cn2c3c(c(N4CC5CCCNC5C4)c(F)cc3c1=O)Oc1cc3ccccc3cc1-2` (centres unmarked) [compound 328]: the IC50 under setting [1] was 1 µM.
The same measure, in the same setting: as for `CN(C)CC(C)(C)CNC(=O)c1cn2c3c(c(NCCCN4CCOCC4)c(F)cc3c1=O)Oc1cc3ccccc3cc1-2` [compound 332], the figure is 1 µM.
Turning to `COc1ccc(CCNc2c(F)cc3c(=O)c(C(=O)N(C)CCc4ccccn4)cn4c3c2Oc2cc3ccccc3cc2-4)cc1OC` [compound 1759], the IC50 under setting [2] amounted to 10 µM.
Regarding `Nc1c(F)c(NCCCN2CCOCC2)c2c3c1c(=O)c(C(=O)NCCN1CCOCC1)cn3-c1cc3ccccc3cc1O2` [compound 221], the IC50 under setting [1] amounted to 1.75 µM.
The same measure, in the same setting: the figure for `CN(C)CCC(=O)N[C@@H]1CCN(c2c(F)cc3c(=O)c(C(=O)NCCCN4CCN(C)CC4)cn4c3c2Oc2cc3c(cc2-4)oc2ccccc23)C1` [compound 175] is 1.75 µM.
For the compound `CC1(C)CC(NC(=O)c2cn3c4c(c(NCCN5CCCC5)c(F)cc4c2=O)Oc2ccccc2-3)CC(C)(C)N1` [compound 1603], the IC50 under setting [2] was above 15 µM.
On to `CN(C)CCCCNC(=O)c1cn2c3c(c(NCCC4CCCN4C)c(F)cc3c1=O)Oc1c-2ccc2ccccc12` (centres unmarked) [compound 550], for which the IC50 under setting [1] turned out to be 0.375 µM.
Same read-out and setting: the figure for `CN1CCN(CCCNC(=O)c2cn3c4c(c(N5CC[C@@H](NC(=O)CCN6CCCC6)C5)c(F)cc4c2=O)Oc2cc4c(cc2-3)oc2ccccc24)CC1` [compound 174] is 1.75 µM.
Still for that read-out and setting: the figure for `CCCCN(CCCC)CCCNc1c(F)cc2c(=O)c(C(=O)N3CCOCC3)cn3c2c1Oc1cc2ccccc2cc1-3` [compound 45] is 2.5 µM; for `O=C(NCCCN1CCOCC1)c1cn2c3c(c(NCCN4CCOCC4)c(F)cc3c1=O)Oc1cc3ccccc3cc1-2` [compound 53] it is 2.5 µM.
Same read-out and setting: the figure for `CN(C)CCCCNC(=O)c1cn2c3c(c(NCCN4CCCC4)c(F)cc3c1=O)Oc1cc3ccccc3cc1-2` [compound 317] is 1 µM; for `CN1CCCC1CCNc1c(F)cc2c(=O)c(C(=O)NCCCn3ccnc3)cn3c2c1Oc1c-3ccc2ccccc12` (centres unmarked) [compound 135] it is 1.75 µM.
Take `CN(C)c1cccc(CNC(=O)c2cn3c4c(c(N5CCC(N)C5)c(F)cc4c2=O)Oc2cc4ccccc4cc2-3)c1` (centres unmarked) [compound 1714]: the IC50 under setting [2] is above 15 µM.
In the case of `O=C(NCCN1CCCC1)c1cn2c3c(c(NCC4CCCO4)c(F)cc3c1=O)Oc1ccc(Cl)cc1-2` (centres unmarked) [compound 1799], the IC50 under setting [2] is above 15 µM.
On to `CN1CCCC1CCNC(=O)c1cn2c3c(c(/N=C4\CCCCN4)c(F)cc3c1=O)Oc1cc3ccccc3cc1-2` (centres unmarked) [compound 253], for which the IC50 under setting [1] is 1.75 µM.
Same read-out and setting: the figure for `CN1CCCC1CCNC(=O)c1cn2c3c(c(NCCCNC(=O)OC(C)(C)C)c(F)cc3c1=O)Oc1cc3ccccc3cc1-2` (centres unmarked) [compound 297] is 1.75 µM; for `CN(C)CCCCNCCC(=O)N[C@@H]1CCN(c2c(F)cc3c(=O)c(C(=O)NCCCN4CCN(C)CC4)cn4c3c2Oc2cc3c(cc2-4)oc2ccccc23)C1` [compound 588] it is 0.18 µM; for `CN(C)CCCCNC(=O)c1cn2c3c(c(NCCCN4CCOCC4)c(F)cc3c1=O)Oc1cc3ccccc3cc1-2` [compound 52] it is 2.5 µM.
In the case of `CN1CCCC1CCNC(=O)c1cn2c3c(c(NC(CO)CC4CCCCC4)c(F)cc3c1=O)Oc1cc3ccccc3cc1-2` (centres unmarked) [compound 1748], the IC50 under setting [2] was above 15 µM.
`COc1cccc(CCNc2c(F)cc3c(=O)c(C(=O)NCCC4CCCN4C)cn4c3c2Oc2cc3ccccc3cc2-4)c1OC` (centres unmarked) [compound 100]: the IC50 under setting [1] is 2.5 µM.
With `CCN(CC)CCCC(C)NC(=O)c1cn2c3c(c(N4CCC(c5cnccn5)C4)c(F)cc3c1=O)Oc1ccccc1-2` (centres unmarked) [compound 1725], the IC50 under setting [2] is 3 µM.
With `CN(C)CCCCNC(=O)c1cn2c3c(c(NCCN4CCOCC4)ccc3c1=O)Oc1cc3ccccc3cc1-2` [compound 1550], the IC50 under setting [2] was above 15 µM.
On the same count and under the same terms, the figure for `CN1CCN(CCCNc2c(F)cc3c(=O)c(C(=O)NCCN4CCOCC4)cn4c3c2Oc2ccccc2-4)CC1` [compound 1573] is above 15 µM.
Same read-out and setting: the figure for `CN1CCN(CCCNC(=O)c2cn3c4c(c(N5CC6CCCNC6C5)c(F)cc4c2=O)Oc2cc4ccccc4cc2-3)CC1` (centres unmarked) [compound 1641] is 0.75 µM.
For the compound `O=C(NCCCn1ccnc1)c1cn2c3c(c(NCCCN4CCOCC4)c(F)cc3c1=O)Oc1cc3c(cc1-2)oc1ccccc13` [compound 313], the IC50 under setting [1] amounted to 1 µM.
On the same count and under the same terms, the figure for `O=C(NCCCN1CCOCC1)c1cn2c3cc4c(cc3oc3c(NCCCN5CCOCC5)c(F)cc(c1=O)c32)c(=O)c1ccccc14` [compound 203] is 1.75 µM.
For the compound `O=C(NCCN1CCOCC1)c1cn2c3c(c(NCCN4CCCC4)ccc3c1=O)Oc1cc3ccccc3cc1-2` [compound 1521], the IC50 under setting [2] is 1.75 µM.
Same read-out and setting: the figure for `O=C(NCCN1CCCC1)c1cn2c3c(c(N4CCN(c5ncccn5)CC4)c(F)cc3c1=O)Oc1cc(Cl)ccc1-2` [compound 1813] is 5.1 µM.
In the case of `CC(C)(C)OC(=O)NC1CCN(c2c(F)c(N)c3c(=O)c(C(=O)NCCN4CCCC4)cn4c3c2Oc2cc3ccccc3cc2-4)C1` (centres unmarked) [compound 224], under setting [1], the IC50 amounted to 1.75 µM.
In the case of `CN1CCN(CCCNC(=O)c2cn3c4cc5c(=O)c6ccccc6c(=O)c5cc4oc4c(NCCN5CCCC5)c(F)cc(c2=O)c43)CC1` [compound 491], the IC50 under setting [1] was found to be 0.45 µM.
Regarding `C[C@H](O)CNC(=O)c1cn2c3c(c(N4CCC(N)C4)c(F)cc3c1=O)Oc1cc3ccccc3cc1-2` (some centres unmarked) [compound 1709], under setting [2], the IC50 is above 15 µM.
Regarding `Nc1c(F)c(N2CCC(N)C2)c2c3c1c(=O)c(C(=O)N1CCC(N)C1)cn3-c1cc3ccccc3cc1O2` (centres unmarked) [compound 236], the IC50 under setting [1] is 1.75 µM.
With `CC(C)(C)OC(=O)NC1CCN(C(=O)c2cn3c4c(c(N5CCC(NC(=O)OC(C)(C)C)C5)c(F)cc4c2=O)Oc2ccccc2-3)C1` (centres unmarked) [compound 1586], the IC50 under setting [2] is above 15 µM.
Still for that read-out and setting: as for `CN1CCCC1CCNC(=O)c1cn2c3c(c(NC[C@H]4CCCO4)c(F)cc3c1=O)Oc1cc3ccccc3cc1-2` (some centres unmarked) [compound 1736], the figure is 3 µM.
With `NC1CCN(c2ccc3c(=O)c(C(=O)NCCCN4CCOCC4)cn4c3c2Oc2cc3ccccc3cc2-4)C1` (centres unmarked) [compound 457], under setting [1], the IC50 was determined as 0.75 µM.
The same measure, in the same setting: as for `CN1CCN(CCCNc2c(F)cc3c(=O)c(C(=O)NCCN4CCOCC4)cn4c3c2Oc2cc3ccccc3cc2-4)CC1` [compound 60], the figure is 2.5 µM; as for `CC1(C)CC(NC(=O)c2cn3c4c(c(N5CCC(NC(=O)OC(C)(C)C)C5)c(F)cc4c2=O)Oc2cc4ccccc4cc2-3)CC(C)(C)N1` (centres unmarked) [compound 182], 1.75 µM; as for `CC1CCCCN1CCCNc1c(F)cc2c(=O)c(C(=O)N3CCOCC3)cn3c2c1Oc1cc2ccccc2cc1-3` (centres unmarked) [compound 393], 0.75 µM.
Still for that read-out and setting: the figure for `CN1CCCC1CCNC(=O)c1cn2c3cc4c(=O)c5ccccc5c(=O)c4cc3oc3c(N4CCC(N)C4)c(F)cc(c1=O)c32` (centres unmarked) [compound 489] is 0.5 µM.
Consider `CN1CCCC1CCNC(=O)c1cn2c3c(c(NC4CC(C)(C)N(O)C(C)(C)C4)c(F)cc3c1=O)Oc1cc3ccccc3cc1-2` (centres unmarked) [compound 1484], for which, under setting [2], the IC50 is 1.75 µM.
The same measure, in the same setting: the figure for `CN1CCN(CCCNc2c(F)cc3c(=O)c(C(=O)N4CCC(NC(=O)OC(C)(C)C)C4)cn4c3c2Oc2ccccc2-4)CC1` (centres unmarked) [compound 1574] is above 15 µM.
Same read-out and setting: as for `CC(C)N1CCN(c2c(F)cc3c(=O)c(C(=O)NCC(C)(C)CN(C)C)cn4c3c2Oc2ccccc2-4)CC1` [compound 1568], the figure is above 15 µM.
Regarding `NC1CCN(c2c(F)cc3c(=O)c(C(=O)N4CCCCC4CN4CCCC4)cn4c3c2Oc2cc3ccccc3cc2-4)C1` (centres unmarked) [compound 249], under setting [1], the IC50 worked out at 1.75 µM.
For the compound `COc1cccc(CCNC(=O)c2cn3c4c(c(N5CCC(N)C5)c(F)cc4c2=O)Oc2cc4ccccc4cc2-3)c1OC` (centres unmarked) [compound 1702], the IC50 under setting [2] is above 15 µM.
On the same count and under the same terms, as for `CN1CCCC1CCNC(=O)c1cn2c3c(c(NCCN4CCCCC4)c(F)cc3c1=O)Oc1cc3ccccc3cc1-2` (centres unmarked) [compound 1488], the figure is 0.75 µM.
